From ChEMBL document CHEMBL5131435, “Boronic acid derivative activates pyruvate kinase M2 indispensable for redox metabolism in oral cancer cells” (Bioorg Med Chem Lett, 2022)
Calls of active or inactive are those of the source. The calls are words filed in the database; no cut-off is given here.

What was measured:
Assay type in all cases: cell-based
[1] = target: T1, Pyruvate kinase PKM (Homo sapiens, UniProt P14618); assay: Activation of PKM2 in human CAL-27 cells measured after 3 hrs
[2] = target: T1, Pyruvate kinase PKM; assay: Activation of PKM2 in human CAL-27 cells assessed as increased in TPI1 activity at 12.5 to 50 nM measured after 3 hrs; conditions: filed as activator, dose 12.5-50 nM
Target sequence in this assay (P14618 2-531 limits assumed): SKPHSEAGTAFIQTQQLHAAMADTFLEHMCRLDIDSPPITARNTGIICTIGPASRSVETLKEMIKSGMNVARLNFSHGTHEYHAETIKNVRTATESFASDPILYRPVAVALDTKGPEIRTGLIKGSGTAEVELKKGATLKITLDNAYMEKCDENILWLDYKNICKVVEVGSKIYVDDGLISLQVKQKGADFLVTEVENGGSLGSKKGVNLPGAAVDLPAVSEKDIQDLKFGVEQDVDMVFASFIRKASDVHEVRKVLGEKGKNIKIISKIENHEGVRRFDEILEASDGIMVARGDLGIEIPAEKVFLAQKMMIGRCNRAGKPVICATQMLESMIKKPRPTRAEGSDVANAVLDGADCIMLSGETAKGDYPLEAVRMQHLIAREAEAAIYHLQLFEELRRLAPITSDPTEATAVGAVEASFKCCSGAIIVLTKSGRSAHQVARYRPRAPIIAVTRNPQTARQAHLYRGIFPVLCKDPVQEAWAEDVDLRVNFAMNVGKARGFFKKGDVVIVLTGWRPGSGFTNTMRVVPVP

[3] = target: T1, Pyruvate kinase PKM; assay: Activation of PKM2 in human CAL-27 cells assessed as decrease in GSH level at 12.5 to 50 nM; conditions: filed as activator, dose 12.5-50 nM
Target sequence in this assay (P14618 2-531 limits assumed): as above

[4] = target: T1, Pyruvate kinase PKM; assay: Activation of PKM2 in human CAL-27 cells assessed as decrease in NADP+/NADPH ratio at 12.5 to 50 nM; conditions: filed as activator, dose 12.5-50 nM
Target sequence in this assay (P14618 2-531 limits assumed): as above

[5] = target: T1, Pyruvate kinase PKM; assay: Activation of PKM2 in human CAL-27 cells assessed as decrease in lactate levels at 12.5 to 50 nM; conditions: filed as activator, dose 12.5-50 nM
Target sequence in this assay (P14618 2-531 limits assumed): as above

[6] = target: T1, Pyruvate kinase PKM; assay: Activation of PKM2 in human CAL-27 cells assessed as increased in TPI1 activity at 52 nM measured after 3 hrs; conditions: filed as activator
Target sequence in this assay (P14618 2-531 limits assumed): as above

[7] = target: T1, Pyruvate kinase PKM; assay: Activation of PKM2 in human CAL-27 cells assessed as decrease in GSH level at 52 nM; conditions: filed as activator
Target sequence in this assay (P14618 2-531 limits assumed): as above

With CCOC(=O)/C(=C\c1ccc(B(O)O)cc1)C(=O)c1sc(Nc2ccc(Cl)cc2)nc1N(C)C the AC50 [1] was 50 nM, the Activity ([1]; filed as activator, dose 10-100 nM, DDE = dose-dependent effect) was “Dde” and the Activity [2] was “Active”. The Activity [3] was “Active”, the Activity [4] was “Active” and the Activity [5] was “Active”.

In the case of Nc1cccc(S(=O)(=O)N2CCCN(S(=O)(=O)c3ccc4c(c3)OCCO4)CC2)c1, the AC50 [1] is reported as 52 nM, the Activity [6] is reported as “Active” and the Activity [7] is reported as “Active”.
